# Like-named read-outs stand apart in the source and are kept apart here.
# Key:
# A431 [1] = assay: Inhibition of cell growth by incorporation of [3H]-thymidine, A431; type: cell-based, human; details: Homo sapiens
# Method: Representative compounds of this invention were evaluated for their ability to inhibit the growth of the cell lines described below in vitro. The inhibition is quantitated by measuring the decrease in the incorporation of radio-labeled thymidine when the cells are grown in the presence of the inhibitor. […] Cells were routinely grown in a humidified incubator in 5% CO2 in air.
# Cells were seeded at 10,000 cells/well in 96 well plates in complete media and allowed to grow to log phase. At this stage the complete media was replaced with media containing 0.5% FBS (for cells growing in 10% FBS) or media lacking epidermal growth factor (EGF) (for cells growing in serum free media). […] Media with test compound was then removed and complete media was added back. The cells were allowed to grow for 18 hours. This is followed by incubation in [^3H]thymidine (1mCi/ml in serum/EGF media) for 4 hours. Cells were lysed in 0.5 M NaOH for at least 30 min at 37°C and radioactivity analyzed.
# The % inhibition of the compound evaluated was determined for at least three different concentrations and the IC50 value evaluated from the dose response curve. […] CPM(control) is in units of counts per minute and is a number expressing the amount of [^3H]thymidine incorporated onto the DNA when cells are grown in the absence of test compound as measured by liquid scintillation counting.
# HTB161 = assay: Inhibition of cancer cell growth as measured by cell number, HTB161; type: cell-based; details: Homo sapiens, read-out: IC50 HTB161
# A27805 = assay: Inhibition of cancer cell growth as measured by cell number, A27805; type: cell-based; details: Homo sapiens, read-out: IC50 A27805
# A2780DDP = assay: Inhibition of cancer cell growth as measured by cell number, A2780DDP; type: cell-based; details: Homo sapiens, read-out: IC50 A2780DDP
# MIP = assay: Inhibition of cancer cell growth as measured by cell number, MIP; type: cell-based; details: Homo sapiens; cell number, Sulforhodamine B, 48 hours exposure; Table 4; read-out: IC50 MIP
# SW620 = assay: Inhibition of cancer cell growth as measured by cell number, SW620; type: cell-based, human; details: Homo sapiens, SW-620, 48 h, Table 4;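 further: SW620 was included as a cell line with little or no EGFR or HER2/neu expression, in contrast to receptor-overexpressing lines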
# From the text: (§1) The cell lines were chosen since they overexpressed epidermal growth factor receptor (EGFR) (i.e. A431) or HER2/neu (SKBR3), or had little to no expression of the these receptors (SW620, LOX, MCF7).
# COLO205 = assay: Inhibition of cancer cell growth as measured by cell number, COLO205; type: cell-based; details: Homo sapiens, read-out: IC50 COLO205
# CX1 = assay: Inhibition of cancer cell growth as measured by cell number, CX1; type: cell-based; details: Homo sapiens, read-out: IC50 CX1
# CACO2 = assay: Inhibition of cancer cell growth as measured by cell number, CACO2; type: cell-based; details: Homo sapiens, read-out: IC50 CACO2
# HCT15 = assay: Inhibition of cancer cell growth as measured by cell number, HCT15; type: cell-based; details: Homo sapiens, read-out: IC50 HCT15
# LS174T = assay: Inhibition of cancer cell growth as measured by cell number, LS174T; type: cell-based; details: Homo sapiens
# SW948 = assay: Inhibition of cancer cell growth as measured by cell number, SW948; type: cell-based; details: Homo sapiens, read-out: IC50 SW948
# CCL228 = assay: Inhibition of cancer cell growth as measured by cell number, CCL228; type: cell-based; details: Homo sapiens, read-out: IC50 CCL228
# MCF7 = assay: Inhibition of cancer cell growth as measured by cell number, MCF7; type: cell-based, human; details: Homo sapiens, MCF7, 48 h, Table 5;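 further: MCF7 was included as a line with little or no EGFR or HER2/neu expression, in contrast to the receptor-overexpressing lines of the panel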
# From the text: as §1
# B7474 = assay: Inhibition of cancer cell growth as measured by cell number, B7474; type: cell-based; details: Homo sapiens, read-out: IC50 B7474
# T47D = assay: Inhibition of cancer cell growth as measured by cell number, T47D; type: cell-based; details: Homo sapiens
# LX1 = assay: Inhibition of cancer cell growth as measured by cell number, LX1; type: cell-based; details: Homo sapiens, read-out: IC50 LX1
# A549 = assay: Inhibition of cancer cell growth as measured by cell number, A549; type: cell-based; details: Homo sapiens, read-out: IC50 A549
# LOX = assay: Inhibition of cancer cell growth as measured by cell number, LOX; type: cell-based, human; details: Homo sapiens, LOX, 48 h, Table 6;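 further: LOX cells served as a line with low or absent EGFR and HER2/neu expression, in contrast to receptor-overexpressing lines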
# From the text: as §1
# A431 [2] = assay: Inhibition of cancer cell growth as measured by cell number, A431; type: cell-based, human; details: Homo sapiens, A-431, 48 h, Table 6;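 further: human A431 line, picked because it overexpresses epidermal growth factor receptor (EGFR)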
# From the text: as §1
# NEC = assay: Inhibition of cancer cell growth as measured by cell number, NEC; type: cell-based; details: Homo sapiens, read-out: IC50 NEC
# DU145 = assay: Inhibition of cancer cell growth as measured by cell number, DU145; type: cell-based; details: Homo sapiens, read-out: IC50 DU145
# PC3 = assay: Inhibition of cancer cell growth as measured by cell number, PC3; type: cell-based; details: Homo sapiens, read-out: IC50 PC3
# LNCAP = assay: Inhibition of cancer cell growth as measured by cell number, LNCAP; type: cell-based; details: Homo sapiens
# HL60 = assay: Inhibition of cancer cell growth as measured by cell number, HL60; type: cell-based; details: Homo sapiens, read-out: IC50 HL60
# CCRF-CFM = assay: Inhibition of cancer cell growth as measured by cell number, CCRF-CFM; type: cell-based; details: Homo sapiens, read-out: IC50 CCRF-CFM
# SKBR3 = assay: Inhibition of cancer cell growth as measured by cell number, SKBR3; type: cell-based, human; details: Homo sapiens, Table 7;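 further: SK-BR-3 cells were selected as a line overexpressing HER2/neu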
# From the text: as §1
# [3] = target: recombinant human MEK 1 (MAPKK) and recombinant human ERK2 (MAPK); assay: Mitogen Activated Protein Kinase (MAPK) assay, two component coupled MEK 1 / ERK2; type: biochemical; details: separate entries for the same compound = evaluated more than one time;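 further: MEK 1-activated ERK2 phosphorylates MBP or Myc peptide with 33P-ATP, filter capture and scintillation counting, inhibitor preincubated with ERK2 30 min at 0 °C, inhibition relative to uninhibited control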
# [4] = target: epidermal growth factor receptor kinase (Homo sapiens, UniProt P00533); assay: biochemical
# [5] = target: T1, Kinase insert Domain containing Receptor (KDR: the catalytic domain of the VEGF receptor) (Homo sapiens, UniProt P35968); assay: Inhibition of Kinase insert Domain containing Receptor (KDR); type: biochemical; details: pH 7.2; radioactive format; read-out: KDR IC50 (converted);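 further: KDR phosphorylating a Glu:Tyr 4:1 copolymer with P32- or P33-labelled ATP, Mg++ and vanadate, read as acid-insoluble radiolabel, compared with compound-free reaction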
# T1 construct: KDR: the catalytic domain of the VEGF receptor
# [6] = read-out: IC50 SW620, cell number, Sulforhodamine B, 48 hours exposure
# [7] = read-out: IC50 MCF7, cell number, Sulforhodamine B, 48 hours exposure
# [8] = read-out: IC50 LOX, cell number, Sulforhodamine B, 48 hours exposure
# [9] = read-out: IC50 A431, cell number, Sulforhodamine B, 48 hours exposure
# [10] = SK-BR-3, 48 h, read-out: IC50 SKBR3, cell number, Sulforhodamine B, 48 hours exposure
# [11] = cell number, Sulforhodamine B, 48 hours exposure, Table 4
# [12] = cell number, Sulforhodamine B, 48 hours exposure, Table 6
# epidermal growth factor receptor kinase, sequence (P00533 25-1210): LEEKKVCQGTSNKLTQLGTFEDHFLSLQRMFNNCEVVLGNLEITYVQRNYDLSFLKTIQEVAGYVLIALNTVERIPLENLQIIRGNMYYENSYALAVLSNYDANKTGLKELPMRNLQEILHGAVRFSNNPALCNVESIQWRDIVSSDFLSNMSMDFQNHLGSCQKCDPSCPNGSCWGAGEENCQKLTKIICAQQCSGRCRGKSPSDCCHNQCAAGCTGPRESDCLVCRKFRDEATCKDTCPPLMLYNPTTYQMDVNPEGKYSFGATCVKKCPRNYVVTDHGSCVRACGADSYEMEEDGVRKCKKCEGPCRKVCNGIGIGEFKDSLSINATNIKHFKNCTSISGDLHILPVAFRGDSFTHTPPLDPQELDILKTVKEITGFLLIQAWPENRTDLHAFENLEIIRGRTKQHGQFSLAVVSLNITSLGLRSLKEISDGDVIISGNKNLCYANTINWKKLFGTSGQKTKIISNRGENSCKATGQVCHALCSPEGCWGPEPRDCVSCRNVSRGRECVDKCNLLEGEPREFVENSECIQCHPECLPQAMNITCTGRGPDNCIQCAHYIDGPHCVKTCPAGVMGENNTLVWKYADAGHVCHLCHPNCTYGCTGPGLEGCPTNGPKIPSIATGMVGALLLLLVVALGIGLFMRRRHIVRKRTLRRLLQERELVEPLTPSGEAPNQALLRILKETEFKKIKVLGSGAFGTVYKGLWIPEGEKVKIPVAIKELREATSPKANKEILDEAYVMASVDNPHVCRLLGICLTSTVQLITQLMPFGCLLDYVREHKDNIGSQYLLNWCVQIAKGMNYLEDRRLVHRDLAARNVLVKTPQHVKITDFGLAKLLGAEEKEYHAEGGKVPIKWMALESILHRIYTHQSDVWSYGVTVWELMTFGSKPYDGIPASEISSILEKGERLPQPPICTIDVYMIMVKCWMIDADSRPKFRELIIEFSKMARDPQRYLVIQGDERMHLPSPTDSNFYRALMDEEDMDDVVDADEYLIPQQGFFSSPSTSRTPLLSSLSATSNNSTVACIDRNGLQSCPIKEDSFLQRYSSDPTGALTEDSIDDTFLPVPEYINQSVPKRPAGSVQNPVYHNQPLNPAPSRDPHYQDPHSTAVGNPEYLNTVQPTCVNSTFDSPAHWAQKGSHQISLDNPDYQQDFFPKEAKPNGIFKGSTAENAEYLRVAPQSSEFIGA
# T1 sequence (P35968 834-1162 limits assumed): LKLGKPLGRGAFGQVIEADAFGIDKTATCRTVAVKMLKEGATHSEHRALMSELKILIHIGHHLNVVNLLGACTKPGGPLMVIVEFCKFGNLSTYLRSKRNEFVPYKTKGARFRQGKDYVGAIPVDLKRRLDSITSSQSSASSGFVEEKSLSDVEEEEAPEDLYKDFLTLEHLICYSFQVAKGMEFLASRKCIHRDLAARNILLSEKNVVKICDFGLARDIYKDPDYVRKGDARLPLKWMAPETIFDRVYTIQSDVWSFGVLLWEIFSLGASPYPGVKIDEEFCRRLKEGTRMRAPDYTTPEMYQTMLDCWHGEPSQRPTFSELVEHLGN
structure (smiles),measurement,setting,value
"N#Cc1cnc2ccc([N+](=O)[O-])cc2c1Nc1cccc(Br)c1 [Example 13, 4-[(3-Bromophenyl)amino]-6-nitro-3-quinolinecarbonitrile]",IC50,"A431 [1]; A-431, read-out: IC50 A431",50 µM
same,IC50,HTB161; 48 h,97.1 µg/mL
same,IC50,A27805; 48 h,9.94 µg/mL
same,IC50,A2780DDP; 48 h,57 µg/mL
same,IC50,MIP,7.8 µg/mL
same,IC50,SW620; [6],100 µg/mL
same,IC50,"COLO205; COLO 205, 48 h",45.8 µg/mL
same,IC50,"CX1; CX-1, 48 h",> 100 µg/mL
same,IC50,"CACO2; Caco-2, 48 h",31.5 µg/mL
same,IC50,"HCT15; HCT-15, 48 h",100 µg/mL
same,IC50,"LS174T; 48 h, read-out: IC50 LS174T",94 µg/mL
same,IC50,"SW948; SW948, 48 h",> 100 µg/mL
same,IC50,CCL228; 48 h,> 100 µg/mL
same,IC50,MCF7; [7],65 µg/mL
same,IC50,B7474; 48 h,98.8 µg/mL
same,IC50,"T47D; 48 h, read-out: IC50 T47D",47.7 µg/mL
same,IC50,"LX1; LX-1, 48 h",> 100 µg/mL
same,IC50,"A549; A549, 48 h",> 100 µg/mL
same,IC50,LOX; [8],> 100 µg/mL
same,IC50,A431 [2]; [9],91 µg/mL
same,IC50,NEC; 48 h,> 100 µg/mL
same,IC50,"DU145; DU-145, 48 h",65.8 µg/mL
same,IC50,"PC3; PC-3, 48 h",> 100 µg/mL
same,IC50,"LNCAP; 48 h, read-out: IC50 LNCAP",> 100 µg/mL
same,IC50,"HL60; HL-60, 48 h",70.2 µg/mL
same,IC50,CCRF-CFM; 48 h,> 100 µg/mL
same,IC50,SKBR3; [10],100 µg/mL
same,IC50,[3],> 100 µM
"COc1cc2[nH]cc(C#N)c(=O)c2cc1OC [Example 33, 1,4-Dihydro-6,7-dimethoxy-4-oxo-3-quinolinecarbonitrile]",IC50,"A431 [1]; A-431, [3H]-thymidine incorporation, A431, read-out: IC50 A431",18 µM
"COc1cc2ncc(C#N)c(Nc3ccc(F)cc3)c2cc1OC [Example 46, 4-((4-Fluorophenyl)amino]-6,7-dimethoxy-3-quinolinecarbonitrile]",IC50,"A431 [1]; A-431, read-out: IC50 A431",1 µM
same,IC50,HTB161; 48 h,9.59 µg/mL
same,IC50,A27805; 48 h,7.41 µg/mL
same,IC50,A2780DDP; 48 h,5.86 µg/mL
same,IC50,MIP,5.6 µg/mL
same,IC50,SW620; [6],> 100 µg/mL
same,IC50,"CX1; CX-1, 48 h",9.7 µg/mL
same,IC50,"CACO2; Caco-2, 48 h",6.03 µg/mL
same,IC50,"HCT15; HCT-15, 48 h",5.6 µg/mL
same,IC50,"LS174T; 48 h, read-out: IC50 LS174T",7.13 µg/mL
same,IC50,"SW948; SW948, 48 h",> 100 µg/mL
same,IC50,CCL228; 48 h,54 µg/mL
same,IC50,B7474; 48 h,32.9 µg/mL
same,IC50,"T47D; 48 h, read-out: IC50 T47D",> 100 µg/mL
same,IC50,"LX1; LX-1, 48 h",34 µg/mL
same,IC50,"A549; A549, 48 h",4.85 µg/mL
same,IC50,LOX; [8],5.35 µg/mL
same,IC50,A431 [2]; [9],8.01 µg/mL
same,IC50,"DU145; DU-145, 48 h",3.63 µg/mL
same,IC50,"PC3; PC-3, 48 h",> 100 µg/mL
same,IC50,"HL60; HL-60, 48 h",6.02 µg/mL
same,IC50,CCRF-CFM; 48 h,61.7 µg/mL
same,IC50,[4],8.83 µM
"COc1cc2ncc(C#N)c(Oc3cccc(Br)c3)c2cc1OC [Example 49, 4-(3-Bromophenoxy)-6,7-dimethoxy-3-quinolinecarbonitrile]",IC50,HTB161; 48 h,70.6 µg/mL
same,IC50,A27805; 48 h,34.8 µg/mL
same,IC50,A2780DDP; 48 h,51.8 µg/mL
same,IC50,MIP,> 100 µg/mL
same,IC50,SW620; [6],> 100 µg/mL
same,IC50,"COLO205; COLO 205, 48 h",88 µg/mL
same,IC50,"CX1; CX-1, 48 h",98.4 µg/mL
same,IC50,"CACO2; Caco-2, 48 h",42.1 µg/mL
same,IC50,"HCT15; HCT-15, 48 h",97.4 µg/mL
same,IC50,"LS174T; 48 h, read-out: IC50 LS174T",> 100 µg/mL
same,IC50,"SW948; SW948, 48 h",> 100 µg/mL
same,IC50,CCL228; 48 h,99 µg/mL
same,IC50,MCF7; [7],57.5 µg/mL
same,IC50,B7474; 48 h,87.1 µg/mL
same,IC50,"T47D; 48 h, read-out: IC50 T47D",71.2 µg/mL
same,IC50,"LX1; LX-1, 48 h",> 100 µg/mL
same,IC50,"A549; A549, 48 h",> 100 µg/mL
same,IC50,LOX; [8],55.1 µg/mL
same,IC50,A431 [2]; [9],100 µg/mL
same,IC50,NEC; 48 h,85.3 µg/mL
same,IC50,"DU145; DU-145, 48 h",79.8 µg/mL
same,IC50,"PC3; PC-3, 48 h",> 100 µg/mL
same,IC50,"LNCAP; 48 h, read-out: IC50 LNCAP",52.4 µg/mL
same,IC50,"HL60; HL-60, 48 h",48.4 µg/mL
same,IC50,CCRF-CFM; 48 h,> 100 µg/mL
same,IC50,SKBR3; [10],74.6 µg/mL
same,IC50,[5],> 77.9 µM
same,IC50,[3],> 100 µM
"COc1cc2ncc(C#N)c(Sc3ccc(Br)cc3)c2cc1OC [Example 50, 4-[(4-Bromophenyl)sulfanyl]-6,7-dimethoxy-3-quinolinecarbonitrile]",IC50,HTB161; [11],4.46 µg/mL
same,IC50,A27805; [11],4.68 µg/mL
same,IC50,A2780DDP; [11],6.42 µg/mL
same,IC50,MIP,7.35 µg/mL
same,IC50,"SW620; cell number, Sulforhodamine B, 48 hours exposure, read-out: IC50 SW620",32.9 µg/mL
same,IC50,"COLO205; COLO 205, cell number, Sulforhodamine B, 48 hours exposure, Table 4",28.5 µg/mL
same,IC50,"CX1; CX-1, cell number, Sulforhodamine B, 48 hours exposure, Table 4",8.72 µg/mL
same,IC50,"CACO2; Caco-2, cell number, Sulforhodamine B, 48 hours exposure, Table 5",4.89 µg/mL
same,IC50,"HCT15; HCT-15, cell number, Sulforhodamine B, 48 hours exposure, Table 5",8.54 µg/mL
same,IC50,"LS174T; cell number, Sulforhodamine B, 48 hours exposure, Table 5, read-out: IC50 LS174T",7.68 µg/mL
same,IC50,"SW948; SW948, cell number, Sulforhodamine B, 48 hours exposure, Table 5",17.9 µg/mL
same,IC50,"CCL228; cell number, Sulforhodamine B, 48 hours exposure, Table 5",6.79 µg/mL
same,IC50,"MCF7; cell number, Sulforhodamine B, 48 hours exposure, read-out: IC50 MCF7",7.14 µg/mL
same,IC50,B7474; [12],7.17 µg/mL
same,IC50,"T47D; cell number, Sulforhodamine B, 48 hours exposure, Table 6, read-out: IC50 T47D",5.42 µg/mL
same,IC50,"LX1; LX-1, cell number, Sulforhodamine B, 48 hours exposure, Table 6",7.21 µg/mL
same,IC50,"A549; A549, cell number, Sulforhodamine B, 48 hours exposure, Table 6",6.82 µg/mL
same,IC50,"LOX; cell number, Sulforhodamine B, 48 hours exposure, read-out: IC50 LOX",4.7 µg/mL
same,IC50,"A431 [2]; cell number, Sulforhodamine B, 48 hours exposure, read-out: IC50 A431",7.35 µg/mL
same,IC50,NEC; [12],6.89 µg/mL
same,IC50,"DU145; DU-145, cell number, Sulforhodamine B, 48 hours exposure, Table 7",5.6 µg/mL
same,IC50,"PC3; PC-3, cell number, Sulforhodamine B, 48 hours exposure, Table 7",8.53 µg/mL
same,IC50,"LNCAP; cell number, Sulforhodamine B, 48 hours exposure, Table 7, read-out: IC50 LNCAP",5.34 µg/mL
same,IC50,"HL60; HL-60, cell number, Sulforhodamine B, 48 hours exposure, Table 7",4.72 µg/mL
same,IC50,"CCRF-CFM; cell number, Sulforhodamine B, 48 hours exposure, Table 7",4.6 µg/mL
same,IC50,"SKBR3; SK-BR-3, cell number, Sulforhodamine B, 48 hours exposure, read-out: IC50 SKBR3",6.83 µg/mL
same,IC50,[3],> 100 µM
same,IC50,[4],5 µM

# Source: patent EP0973746B1, “SUBSTITUTED 3-CYANO QUINOLINES” (Wyeth Holdings Corporation, priority 1997, dated 1998)
